Legend:
[1] = target: PAK1 (Homo sapiens, UniProt Q13153); assay: Kinase panel: PAK1; type: biochemical; conditions: 10 μM EP009
Protocol: (§1) Achieving JAK3 selectivity remains a significant challenge in the development of new small molecules for the treatment of cancer and immune-derived diseases. As such, the inventors employed cell-based screening assays of small-molecule libraries based upon the chemical scaffold of the established JAK3 inhibitor NC1153 (Stepkowski et al., J Immunol. (2005), 175(7):4236-4246) EP009 (FIG. 2A) was selected as a lead compound due to improved intrinsic stability (>95% purity in various solvents at 37° C. for 24 hours; FIG. 3) and high-degree of JAK3 selectivity. To test JAK3 versus JAK2 specificity of EP009, the IL-2/JAK3-dependent Kit225, and IL-3/JAK2-dependent BaF/3 cell lines were used. Kit225 and BaF/3 cells growing in the presence of IL-2 or IL-3, respectively, were treated with ascending concentrations of EP009 for 12 hours and cellular JAK3 and JAK2 tyrosine phosphorylation levels detected by Western blot analysis (FIGS. 2B and 2C). Following densitometric analysis, EP009 was determined to dose-dependently reduce IL-2-mediated JAK3 tyrosine phosphorylation with a cellular 50% inhibitory concentration (IC50) between 10 and 20 μM (FIG. 2B). […] To globally evaluate specificity, the inhibitory activity of EP009 was measured against a panel of protein kinases distributed throughout the kinome using the scanEDGE profiling service (KINOMEscan). […]

[2] = tested on: SU-DHL-1 tumors; assay: SU-DHL-1 xenograft human lymphoma model; type: in vivo, SCID/NOD mice
Protocol: FIGS. 9A-9B Pharmacokinetics and efficacy of EP009 in vivo. (A) Sprague Dawley rats were administered EP009 by oral gavage (200 mg/kg) and pharmacokinetics measured by analysis of plasma concentrations at indicated time points. Values represent mean concentrations, while error bars represent the standard deviation (n=5). (B) Therapeutic study of EP009 in SU-DHL-1 model in SCID/NOD mice.
Severe combined immunodeficient/nonobese diabetic (SCID/NOD) mice were purchased from Charles River (Milan, Italy). The SU-DHL-1 model, 28 which was established by subcutaneous injection of 1×10^7 SU-DHL-1 cells in the left flank of SCID/NOD mice, served as the xenograft human lymphoma model. Tumor masses were measured with caliper in two perpendicular diameters in a blind fashion to determine the longest diameter. Progressively growing masses >1 mm in diameter were regarded as tumors. Mice were divided into three groups (n=8/group) and treatments initiated when tumors were established and measurable (day 16 after tumor challenge). Control mice received oral gavage of saline (placebo), while treated mice received EP009 orally (100 or 200 mg/kg) three times per week for six weeks. The study was terminated when tumors began to show signs of ulcerations and measurements became inaccurate (day 58). All animal were maintained in the animal facility of the Molecular Biotechnology Center, University of Turin and treated in accordance with the European guidelines.

[3] = target: CDK9 (Homo sapiens, UniProt P50750); assay: Kinase panel: CDK9; type: biochemical; conditions: 10 μM EP009
Chain of CDK9 (P50750 whole entry): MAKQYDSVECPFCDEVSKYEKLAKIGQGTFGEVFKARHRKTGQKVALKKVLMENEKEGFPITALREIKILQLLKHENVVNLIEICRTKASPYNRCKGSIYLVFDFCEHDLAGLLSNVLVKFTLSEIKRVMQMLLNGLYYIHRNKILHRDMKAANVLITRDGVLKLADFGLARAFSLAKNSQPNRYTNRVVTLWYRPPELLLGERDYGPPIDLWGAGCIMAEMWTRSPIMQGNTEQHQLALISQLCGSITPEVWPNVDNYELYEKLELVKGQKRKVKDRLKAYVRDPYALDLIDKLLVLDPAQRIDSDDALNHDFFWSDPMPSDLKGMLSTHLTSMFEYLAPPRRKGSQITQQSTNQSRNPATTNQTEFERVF
Protocol: as §1

[4] = target: RET (Homo sapiens, UniProt P07949); assay: Kinase panel: RET; type: biochemical; conditions: 10 μM EP009
Chain of RET (P07949 29-1114): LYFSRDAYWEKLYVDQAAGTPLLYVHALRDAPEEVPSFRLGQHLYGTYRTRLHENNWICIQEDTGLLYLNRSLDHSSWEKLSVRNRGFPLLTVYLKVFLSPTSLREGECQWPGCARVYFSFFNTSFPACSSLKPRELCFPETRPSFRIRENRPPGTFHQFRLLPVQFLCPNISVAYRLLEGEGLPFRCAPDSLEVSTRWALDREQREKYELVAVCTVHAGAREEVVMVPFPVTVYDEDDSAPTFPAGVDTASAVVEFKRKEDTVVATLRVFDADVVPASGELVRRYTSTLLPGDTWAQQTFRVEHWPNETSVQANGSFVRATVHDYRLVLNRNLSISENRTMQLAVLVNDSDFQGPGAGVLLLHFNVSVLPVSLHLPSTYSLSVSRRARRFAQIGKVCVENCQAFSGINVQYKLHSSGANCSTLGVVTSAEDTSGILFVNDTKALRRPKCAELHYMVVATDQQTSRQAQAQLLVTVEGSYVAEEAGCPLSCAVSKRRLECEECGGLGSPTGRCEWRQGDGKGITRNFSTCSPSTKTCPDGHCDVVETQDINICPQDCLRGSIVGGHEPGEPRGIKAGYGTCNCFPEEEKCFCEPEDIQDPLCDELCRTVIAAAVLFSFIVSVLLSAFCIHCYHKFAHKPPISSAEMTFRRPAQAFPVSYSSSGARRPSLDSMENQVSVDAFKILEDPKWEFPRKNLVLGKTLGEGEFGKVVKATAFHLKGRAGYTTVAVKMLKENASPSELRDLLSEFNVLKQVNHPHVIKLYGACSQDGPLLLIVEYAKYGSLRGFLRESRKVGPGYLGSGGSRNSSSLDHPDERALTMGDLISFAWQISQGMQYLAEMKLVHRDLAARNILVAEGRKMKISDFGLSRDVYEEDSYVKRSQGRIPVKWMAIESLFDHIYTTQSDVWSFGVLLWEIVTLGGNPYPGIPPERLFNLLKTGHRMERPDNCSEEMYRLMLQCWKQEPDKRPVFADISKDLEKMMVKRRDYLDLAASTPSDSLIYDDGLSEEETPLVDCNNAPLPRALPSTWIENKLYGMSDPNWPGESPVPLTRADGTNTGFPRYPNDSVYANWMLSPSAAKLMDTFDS
Protocol: as §1

[5] = target: PKAC-alpha (Homo sapiens, UniProt P17612); assay: Kinase panel: PKAC-alpha; type: biochemical; conditions: 10 μM EP009
Protocol: as §1

[6] = target: MARK3 (Homo sapiens, UniProt P27448); assay: Kinase panel: MARK3; type: biochemical; conditions: 10 μM EP009
Chain of MARK3 (P27448 whole entry): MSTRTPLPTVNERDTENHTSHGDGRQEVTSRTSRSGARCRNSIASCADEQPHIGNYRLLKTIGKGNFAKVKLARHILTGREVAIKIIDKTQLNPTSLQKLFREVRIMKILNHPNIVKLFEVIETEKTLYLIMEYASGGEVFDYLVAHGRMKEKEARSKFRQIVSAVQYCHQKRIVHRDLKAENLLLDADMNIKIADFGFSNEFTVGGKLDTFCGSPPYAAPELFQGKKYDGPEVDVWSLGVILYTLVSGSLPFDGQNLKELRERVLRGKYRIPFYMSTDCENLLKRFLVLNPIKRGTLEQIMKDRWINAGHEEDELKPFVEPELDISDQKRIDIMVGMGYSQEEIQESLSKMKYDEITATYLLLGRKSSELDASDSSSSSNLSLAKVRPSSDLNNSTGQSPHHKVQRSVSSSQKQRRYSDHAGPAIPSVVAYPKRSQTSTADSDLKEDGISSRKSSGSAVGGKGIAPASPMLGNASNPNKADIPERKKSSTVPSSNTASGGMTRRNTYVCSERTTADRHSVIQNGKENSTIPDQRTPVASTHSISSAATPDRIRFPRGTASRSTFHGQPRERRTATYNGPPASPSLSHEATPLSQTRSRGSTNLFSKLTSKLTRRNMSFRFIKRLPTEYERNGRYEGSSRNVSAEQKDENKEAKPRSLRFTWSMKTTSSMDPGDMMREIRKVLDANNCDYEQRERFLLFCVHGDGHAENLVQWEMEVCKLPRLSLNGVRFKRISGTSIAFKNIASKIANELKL
Protocol: as §1

[7] = target: ZAP70 (Homo sapiens, UniProt P43403); assay: Kinase panel: ZAP70; type: biochemical; conditions: 10 μM EP009
Chain of ZAP70 (P43403 whole entry): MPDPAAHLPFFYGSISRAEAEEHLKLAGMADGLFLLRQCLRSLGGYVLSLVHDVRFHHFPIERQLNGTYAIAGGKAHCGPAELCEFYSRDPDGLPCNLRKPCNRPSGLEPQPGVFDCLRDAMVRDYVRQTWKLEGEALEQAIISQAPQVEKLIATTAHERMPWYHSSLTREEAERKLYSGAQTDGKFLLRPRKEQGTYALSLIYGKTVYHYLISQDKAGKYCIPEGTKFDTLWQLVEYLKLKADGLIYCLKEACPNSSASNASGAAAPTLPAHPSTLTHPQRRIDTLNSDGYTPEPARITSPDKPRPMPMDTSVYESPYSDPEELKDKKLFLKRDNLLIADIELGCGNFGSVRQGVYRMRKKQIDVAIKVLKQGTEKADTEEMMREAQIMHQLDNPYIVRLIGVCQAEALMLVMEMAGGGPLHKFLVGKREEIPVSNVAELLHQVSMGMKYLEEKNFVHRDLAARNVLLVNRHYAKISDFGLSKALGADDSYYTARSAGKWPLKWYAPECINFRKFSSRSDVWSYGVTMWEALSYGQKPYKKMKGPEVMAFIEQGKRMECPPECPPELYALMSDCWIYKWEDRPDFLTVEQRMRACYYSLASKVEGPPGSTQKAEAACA
Protocol: as §1

[8] = target: KIT (Homo sapiens, UniProt P10721); assay: Kinase panel: KIT; type: biochemical; conditions: 10 μM EP009
Chain of KIT (P10721 26-976): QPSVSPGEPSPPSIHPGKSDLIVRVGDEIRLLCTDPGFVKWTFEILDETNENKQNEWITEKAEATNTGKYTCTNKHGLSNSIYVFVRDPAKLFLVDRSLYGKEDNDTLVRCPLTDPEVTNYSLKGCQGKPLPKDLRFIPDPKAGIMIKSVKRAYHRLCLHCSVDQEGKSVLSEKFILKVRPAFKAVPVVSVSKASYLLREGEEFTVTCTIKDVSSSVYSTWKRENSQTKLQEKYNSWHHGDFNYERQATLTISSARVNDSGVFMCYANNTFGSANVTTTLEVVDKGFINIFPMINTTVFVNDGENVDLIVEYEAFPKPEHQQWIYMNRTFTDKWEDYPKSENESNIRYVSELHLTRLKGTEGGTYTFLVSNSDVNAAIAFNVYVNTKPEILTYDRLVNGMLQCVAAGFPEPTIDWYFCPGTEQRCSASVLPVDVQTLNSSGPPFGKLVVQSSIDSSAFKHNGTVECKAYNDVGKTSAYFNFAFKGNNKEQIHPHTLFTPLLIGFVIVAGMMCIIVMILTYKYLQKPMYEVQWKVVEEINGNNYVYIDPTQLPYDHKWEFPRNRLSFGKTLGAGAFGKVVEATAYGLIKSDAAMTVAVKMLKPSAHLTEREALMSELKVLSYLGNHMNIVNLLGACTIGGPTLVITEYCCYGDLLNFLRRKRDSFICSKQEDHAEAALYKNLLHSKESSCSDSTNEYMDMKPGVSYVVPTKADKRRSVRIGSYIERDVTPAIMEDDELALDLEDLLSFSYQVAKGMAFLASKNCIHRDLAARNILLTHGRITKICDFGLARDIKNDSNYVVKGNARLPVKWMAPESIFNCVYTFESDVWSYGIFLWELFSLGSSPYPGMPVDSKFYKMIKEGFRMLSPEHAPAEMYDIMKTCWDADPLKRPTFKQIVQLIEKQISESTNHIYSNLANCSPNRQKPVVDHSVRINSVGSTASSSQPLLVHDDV
Protocol: as §1

[9] = target: ROCK2 (Homo sapiens, UniProt O75116); assay: Kinase panel: ROCK2; type: biochemical; conditions: 10 μM EP009
Protocol: as §1

Chain of PAK1 (Q13153 whole entry): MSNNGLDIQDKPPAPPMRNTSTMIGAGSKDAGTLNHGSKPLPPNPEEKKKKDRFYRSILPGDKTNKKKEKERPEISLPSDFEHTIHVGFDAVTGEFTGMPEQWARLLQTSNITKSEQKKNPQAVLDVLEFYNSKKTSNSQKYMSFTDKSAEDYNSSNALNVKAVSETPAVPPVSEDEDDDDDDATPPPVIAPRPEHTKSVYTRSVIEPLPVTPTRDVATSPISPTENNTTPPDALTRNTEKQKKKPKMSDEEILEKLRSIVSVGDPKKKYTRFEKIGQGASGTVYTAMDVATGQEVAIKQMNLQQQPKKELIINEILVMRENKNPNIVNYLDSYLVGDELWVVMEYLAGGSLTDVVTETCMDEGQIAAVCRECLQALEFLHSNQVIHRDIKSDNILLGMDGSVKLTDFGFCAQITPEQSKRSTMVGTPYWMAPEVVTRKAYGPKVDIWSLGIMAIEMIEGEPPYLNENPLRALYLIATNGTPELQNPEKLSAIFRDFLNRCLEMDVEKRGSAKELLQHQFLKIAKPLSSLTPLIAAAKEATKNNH

C=C1CCCCCCCCCC(CO)C1=O (centres unmarked) [EP009, 2-(Hydroxymethyl)-12-methylenecyclododecanone]
Kinase Activity (% of Control) [1]: 100 % of Control
tumor growth inhibition ([2]; oral 100 mg/kg three times per week, p<0.05): 37.5%
tumor growth inhibition ([2]; oral 200 mg/kg three times per week, p<0.01): 51%
body weight changes ([2]; oral 100 and 200 mg/kg): No significant body weight changes
Kinase Activity (% of Control) [3]: 90 % of Control
Kinase Activity (% of Control) [4]: 100 % of Control
Kinase Activity (% of Control) [5]: 100 % of Control
Kinase Activity (% of Control) [6]: 100 % of Control
Kinase Activity (% of Control) [7]: 99 % of Control
Kinase Activity (% of Control) [8]: 100 % of Control
Kinase Activity (% of Control) [9]: 99 % of Control
